The text below walks through data of patent publication US5932709A (University of Michigan, priority 1997, dated 1999).

In brackets after ≈: the same amount, converted by molar mass. Entries after “also recorded” stand apart in the source; their conditions may differ. Counter-ions that a name gives are not always drawn.

Usually solubility stands for the concentration that dissolves in the medium under given conditions. A higher solubility goes with much dissolved substance. One may read the IC50 as the concentration that inhibits the measured activity by half.

The conditions of series [1]: as hydrochloride trihydrate; cited from earlier work.
Another series deals with topoisomerase I. The following applies: in words; hydrochloride; cited from earlier work.
The next series has as its system carcinoma cells. The following applies: in words; hydrochloride; cited from earlier work.
For the next series, the system named is tumor growth. The following applies: in words; cited from earlier work.
Series [2] in a line: Water solubility in phosphate buffered saline (spectrophotometric assay). As to conditions: aqueous buffer; water solubility; PBS pH 7.5, room temperature, 24 hr. Type of series: physicochemical. The procedure:
Approximately 5 mg of test compound was suspended in 1 mL of PBS in a 1.5 mL cryovial. The suspensions were mixed continuously on a Thermolyne vari-mix at room temperature for 24 hr. The suspensions were then centrifuged at 14000×g for 2 minutes to separate the undissolved materials. The supernatant fluids were diluted appropriately with PBS and the ultraviolet spectrums were recorded on a Beckman 640 DU spectrophotometer. For comparison, a standard stock (2 mg/mL in DMSO) solution was prepared for each analog. The ultraviolet spectrum of a 20 of 40 μg/mL standard working solution was measured. The water solubility of each analog was calculated based on the following formula:
Cunknown =Cstandard ×(Aunknown
where Cunknown is the concentration of the unknown solution to be determined; Cstandard is the concentration of the standard working solution (either 20 or 40 μg/mL); Astandard is the absorbance at 350 nm of the standard working solution; DDilution is the appropriate dilution factor used so that the absorbance of the unknown working solution is within the dynamic range of the UV spectrophotometer (less than 2 absorbance units).

The target of series [3] is T1, human placental topoisomerase I (Homo sapiens, UniProt P11387).
T1 construct: purchased TopoGen; host or cells: human placenta
T1 sequence (P11387 1-765): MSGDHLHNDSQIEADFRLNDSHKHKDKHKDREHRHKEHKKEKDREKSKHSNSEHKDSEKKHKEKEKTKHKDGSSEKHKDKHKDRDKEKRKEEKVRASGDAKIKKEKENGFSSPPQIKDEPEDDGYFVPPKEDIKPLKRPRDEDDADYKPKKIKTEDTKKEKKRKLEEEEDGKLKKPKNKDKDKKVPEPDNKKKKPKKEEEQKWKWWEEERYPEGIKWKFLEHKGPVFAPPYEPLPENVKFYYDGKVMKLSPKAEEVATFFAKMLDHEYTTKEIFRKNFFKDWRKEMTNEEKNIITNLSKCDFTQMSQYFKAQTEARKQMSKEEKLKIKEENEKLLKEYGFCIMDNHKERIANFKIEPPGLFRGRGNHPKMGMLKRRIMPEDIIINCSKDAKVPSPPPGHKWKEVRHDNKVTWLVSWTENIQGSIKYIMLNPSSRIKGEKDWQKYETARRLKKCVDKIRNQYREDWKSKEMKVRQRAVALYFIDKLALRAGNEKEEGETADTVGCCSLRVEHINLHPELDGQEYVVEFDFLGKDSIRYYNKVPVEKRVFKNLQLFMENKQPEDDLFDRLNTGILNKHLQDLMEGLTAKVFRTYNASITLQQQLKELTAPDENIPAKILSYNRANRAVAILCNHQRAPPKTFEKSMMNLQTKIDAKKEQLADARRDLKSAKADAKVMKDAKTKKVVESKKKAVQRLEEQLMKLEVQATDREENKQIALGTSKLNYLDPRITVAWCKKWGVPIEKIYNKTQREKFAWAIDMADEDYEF
In words: Inhibition of topoisomerase I catalytic activity (relaxation of supercoiled SV40 DNA). The following applies: highest concentration tested (100 μg/mL), in words. The series is classed as biochemical. As to the method: The topoisomerase I catalytic activity was measured by converting the supercoiled SV40 DNA (Form I) to the relaxed form (Form Io). All reactions were performed in 20 μL reaction buffer (Tris-HCl, 10 mM, pH 7.5; EDTA, 1 mM; NaCl, 100 mM) with 0.25 μg SV40 DNA, 0.5 unit of human placental topoisomerase I (TopoGen) and graded concentrations of the analog tested. The reaction mixtures were incubated at 37° C. for 30 minutes. […] Ten μL of the reaction mixture was loaded onto a 1% agarose gel prepared in TAE buffer containing 2 μg/mL chloroquine; and the electrophoresis was performed at 82 volt for 4.5 hr in the TAE buffer containing 2 μg/mL chloroquine. […] The gels were then stained with 0.5 μg/mL ethidium bromide solution for 30 min or longer (if chloroquine is present during the electrophoresis step), and destained with 5 changes of deionized water. […] The DNA bands (image) on the negative were densitometrically scanned with a Molecular Dynamic Personal Densitometer. The percent inhibition of Toposiomerase I activity is calculated based on the following equation:
% Inhibition=(FSC(E+D) -FSC(E))/(FSC(C)
where FSC(E+D) represents fraction of supercoiled DNA in the presence of enzyme and drug; FSC(E) represents fraction of supercoiled DNA in the presence of enzyme alone; FSC(C) represents fraction of supercoiled DNA in the untreated SV40 DNA; the IC50 value was estimated using the same four-parameter logistic equation described in the in vitro growth inhibition studies.

A further series relates to tumor cells. The series is described as follows: MTT growth inhibition across tumor cell lines (P388, P388/CPT, B16, HT-29, MCF-7M). As to conditions: vs camptothecin. Type of series: cell-based. The procedure:
(§1) [See "Rapid Colorimetric Assay For Cellular Growth And Survival: Application To Proliferation And Cytotoxicity Assays," J. Immun. Meth. 65:55 (1983)]. The assay utilizes a tetrazolium salt to quantitatively measure mammalian cell survival and proliferation by colorimetric methods. In particular, MTT, a pale yellow compound with minimal absorbance, is incubated with cancerous cells in addition to (or in the absence of) a particular camptothecin analog. Living cells with active mitochondrial enzymes metabolize the MTT into a dark blue/purple formazan product with high absorbance. The exact procedure used to test the camptothecin analogs of the present invention is described below.
Exponentially growing cells (1-2×10^3 cells, unless specified otherwise) in 0.1 mL medium were seeded on day 0 in a 96-well microtiter plate. On day 1, 0.1 mL aliquots of medium containing graded concentrations of test analogs were added to the cell plates. After incubation at 37° C. in a humidified incubator for 3 days (P388, P388/CPT, B16) or 6 days (HT-29, MCF-7M), the plates were centrifuged briefly and 100 μL of the growth medium was removed. Cell cultures were incubated with 50 μL of 3-(4,5-dimethylthiazol-2-yl)-2,5-diphenyl-tetrazolium bromide [MTT, 1 mg/mL in Dulbecco's phosphate buffered saline (PBS)] for 4 hr at 37° C. The resulting purple formazan precipitate was solubilized with 200 μL of 0.04 N HCl in isopropyl alcohol. Absorbance was monitored in a BioRad Model 3550 Microplate Reader at a test wavelength of 570 nm and a reference wavelength of 630 nm. The absorbance is transferred to a PC 486 computer. The IC50 values were determined by a computer program (EZ-ED50) that fits all of the data to the following four-parameter logistic equation: […]

In series [4] the test system is HT-29 human colon adenocarcinoma cells. In words: MTT growth inhibition, HT-29. Type of series: cell-based. As to conditions: 144 h, HT-29, MTT, 6 days, read-out: Growth Inhibitory Activity IC50. As to the method: (§2) Camptothecin was used as a control to test the anti-cancer efficacy of the novel camptothecin analogs of the present invention.
(§3) Murine B16 melanoma cell line was grown in RPMI 1640 medium supplemented with 10% heat-inactivated fetal bovine serum, 2 mM L-glutamine, 50 units/mL penicillin, 50 μg/mL streptomycin, 25 μg/mL gentamicin, 0.75% sodium bicarbonate 10 mM HEPES buffer (pH 7.4), and 0.06 mg/mL AntiPPLO. Murine P388 leukemic cell line and human HT-29 colon adenocarcinoma line were maintained in RPMI 1640 medium supplemented with 10% heat-inactivated fetal bovine serum. […] MCF-7M human breast adenocarcinoma was maintained in IMEM supplemented with 5% non heat-inactivated fetal bovine serum and 1 nM insulin.
as §1
(§4) Exponentially growing cells (1-2×10^3 cells, unless specified otherwise) in 0.1 mL medium were seeded on day 0 in a 96-well microtiter plate. On day 1, 0.1 mL aliquots of medium containing graded concentrations of test analogs were added to the cell plates. After incubation at 37° C. in a humidified incubator for 3 days (P388, P388/CPT, B16) or 6 days (HT-29, MCF-7M), the plates were centrifuged briefly and 100 μL of the growth medium was removed. Cell cultures were incubated with 50 μL of 3-(4,5-dimethylthiazol-2-yl)-2,5-diphenyl-tetrazolium bromide [MTT, 1 mg/mL in Dulbecco's phosphate buffered saline (PBS)] for 4 hr at 37° C. The resulting purple formazan precipitate was solubilized with 200 μL of 0.04 N HCl in isopropyl alcohol. Absorbance was monitored in a BioRad Model 3550 Microplate Reader at a test wavelength of 570 nm and a reference wavelength of 630 nm. The absorbance is transferred to a PC 486 computer. The IC50 values were determined by a computer program (EZ-ED50) that fits all of the data to the following four-parameter logistic equation:
(§5) Y=(Amax -Amin)/(1+[X/IC^50 ])^n +Amin
(§6) where Amax is the absorbance of control cells, Amin is the absorbance of cells in the presence of highest agent concentration, IC^50 is the concentration of agent that inhibits the cell growth by 50% of control cells (based on the absorbance) and n is the slope of the curve.

Series [5] relates to MCF-7 human breast tumor cells. The series is described as follows: MTT growth inhibition, MCF-7. Type of series: cell-based. The following applies: MCF7, 144 h, MCF-7, MTT, 6 days, read-out: Growth Inhibitory Activity IC50. The procedure:
as §2, §3, §1, §4, §5, §6

Series [6] deals with B16 murine melanoma cells. In words: MTT growth inhibition, B16. The series is classed as cell-based. The following applies: Mus musculus, 72 h, 3 days, read-out: Growth Inhibitory Activity IC50. As to the method:
as §2, §3, §1, §4, §5, §6

The subject of series [7] is P388 murine leukemia cells. The series is described as follows: MTT growth inhibition, P388. The series is classed as cell-based. As to conditions: Mus musculus, 72 h, 3 days, read-out: Growth Inhibitory Activity IC50. As to the method:
as §2, §3, §1, §4, §5, §6

Series [8] concerns P388/CPT CPT-resistant murine leukemia cells. In words: MTT growth inhibition, P388/CPT. The series is classed as cell-based. As to conditions: Mus musculus, 72 h, 3 days, read-out: Growth Inhibitory Activity IC50. The procedure: as §2, §3, §1, §4, §5, §6
For series [9] the following is noted: cited from earlier work.

As to `CCc1c2c(nc3ccc(OC(=O)N4CCC(N5CCCCC5)CC4)cc13)-c1cc3c(c(=O)n1C2)COC(=O)[C@]3(O)CC` [CPT-11, 7-ethyl-10-[4-(piperidino)-1-piperidino]carboxylcamptothecin hydrochloride], the water solubility in [1] was 32000 µg/mL. In addition, in the series with topoisomerase I, the “inhibition of Topoisomerase I activity” value is “inability to inhibit Topoisomerase I activity; also recorded: lack of topoisomerase I inhibitory activity”. The “in vitro efficacy / activity” value with carcinoma cells is “negligible in vitro activity”. Moreover, the “effectiveness against tumor growth in animal studies” value in the series on tumor growth was “significant in vivo preclinical activity”.
In [2], `CCCCCC(=O)O[C@]1(CC)C(=O)OCc2c1cc1n(c2=O)Cc2cc3ccccc3nc2-1` [HAR2, camptothecin 20-n-hexanoate] gave a solubility at 24 h of 2.9 µg/mL (≈ 6.49 µM). Also, the “topoisomerase I inhibition” value in series [3] is “Neither the acetate (HAR3) nor the hexanoate (HAR2) inhibited the topoisomerase I activity”. Besides, in the series with tumor cells, the “reduction of growth inhibitory activity” value is ~100 fold.
For the molecule `CC[C@@]1(OC(C)=O)C(=O)OCc2c1cc1n(c2=O)Cc2cc3ccccc3nc2-1` [HAR3], the concentration in solution in series [2] (solubility at 24 h) came to 6.5 µg/mL (≈ 16.6 µM). For the same molecule, the “topoisomerase I inhibition” value in series [3] is “Neither the acetate (HAR3) nor the hexanoate (HAR2) inhibited the topoisomerase I activity”. The “reduction of growth inhibitory activity” value with tumor cells is on record as “approximately 10 fold”.
In the case of `CC[C@@]1(O)C(=O)OCc2c1cc1n(c2=O)Cc2cc3ccccc3nc2-1` [camptothecin, reference compound], the concentration in solution in series [2] (solubility at 24 h) came to 20 µg/mL (≈ 57.4 µM). Moreover, the IC50 in [4] amounted to 0.002 µg/mL (≈ 0.00574 µM); in series [5], 0.001 µg/mL (≈ 0.00287 µM); in series [6] it was 0.015 µg/mL (≈ 0.0431 µM); in series [7], 0.01 µg/mL (≈ 0.0287 µM); in series [8] it was 1.12 µg/mL (≈ 3.22 µM). Also, in [9] (human, in vivo), the “side effects in human clinical studies” value is “vomiting and diarrhea to myelosuppression and hemorrhagic cystitis”. The “effectiveness against tumor growth in animal studies” value with tumor growth was “significant efficacy in animal tumor models”.
With `CC[C@@](O)(C(=O)O)c1cc2n(c(=O)c1CO)Cc1cc3ccccc3nc1-2` [sodium salt of camptothecin], the anti-cancer efficacy entry in series [9] (sodium salt vs unmodified camptothecin, clinical trials) was “much less than unmodified camptothecin”.
